Assay results published in US11096967B2, “Pharmaceutical composition for preventing or treating regulatory T cell-mediated diseases” (SCM LIFESCIENCE CO., LTD., priority 2016, dated 2021).

Key:
Assay type in all cases: cell-based, human
CD4^+ T cells = assay: Effect of PI3K-Akt inhibitors on rhICOSL- or hcMSC-induced Treg induction; conditions: 2 days; LY294002 5 μM, GSK690693 1 μM
Protocol: Akt inhibitor […] (Calbiochem, San Diego, Calif., USA) was used at a concentration of 1 μM and LY294002 (Cell Signaling Technology, Danvers, Mass., USA) was used at concentration of 5 to 10 μM. […] Total Akt was determined. […] The results are illustrated in FIG. 14.

[1] = test system: PI3K-Akt signaling pathway; assay: Akt phosphorylation in CD4^+ T cells (Western blotting); conditions: pre-treatment 30 min; LY294002 5 μM, GSK690693 1 μM
Protocol: Five independent experiments were carried out. […] After 2 days, hcMSCs were washed three times with cold phosphate-buffered saline (PBS) containing 0.05 mM ethylenediamine tetraacetic acid (EDTA) to detach lymphocytes from hcMSCs. Then, hcMSCs were trypsinized and washed twice with cold PBS-EDTA solution and stained with phycoerythrin (PE)-conjugated ICOSL antibody (BioLegend) to analyze ICOSL expression.
More particularly, CD4^+ T cells were pre-treated with LY294002 (5 μM) and GSK690693 (1 μM) for 30 min. […] Total Akt was determined.

ICOSL = ICOSL induction in hcMSC by priming factors (qRT-PCR, RT-PCR); conditions: for levels of ICOSL mRNA in hcMSCs: IL-1β 10 ng/mL, TNF-α 10 ng/mL, LPS 2 μg/mL, qRT-PCR
From the text: It has been known that the immunosuppressive activity of MSCs can be influenced by various priming or appropriate stimulations. It was confirmed that ICOSL expression in hcMSCs correlated with Treg induction. Thus, it was expected that ICOSL expression was enhanced to increase Treg and to strengthen the immunosuppressive function of hcMSCs. To confirm this expectation, an experiment was first carried out to confirm pro-inflammatory cytokine that can induce ICOSL expression. First, to find appropriate priming factors, hcMSCs were treated with IL-1β (10 ng/mL), TNF-α (10 ng/mL) and LPS (2 μg/mL) for 24 hours. Then, ICOSL expression was determined after 1 hour and 3 hours though qRT-PCR. Further, in order to confirm whether the expression of IL-1R in hcMSC was changed by […] treatment, the expression of IL-1R in hcMSC was confirmed after treatment with IL-1β for 24 hours. The results are illustrated in FIG. 16.

Compound: CCn1c(-c2nonc2N)nc2c(C#CC(C)(C)O)ncc(OC[C@H]3CCCNC3)c21 [GSK690693]
- rhICOSL or hcMSC-induced Tregs (CD4^+ T cells): decreased
- rhICOSL-induced Akt phosphorylation [1]: marked decrease in Akt phosphorylation

Compound: IL-1β: pro-inflammatory cytokine used as priming factor for hcMSCs
- levels of ICOSL mRNA in hcMSCs (ICOSL): highest effect
- levels of ICOSL mRNA in hcMSCs (ICOSL; listed as IL-10): increased
- expression of IL-1R mRNA in hcMSC (ICOSL; IL-1β 10 ng/ml, 24 hours): did not change the expression of IL-1R mRNA

Compound: TNF-α
- levels of ICOSL mRNA in hcMSCs (ICOSL): increased
